Laboratory results from patent US12551525B2, “Collagen peptide-based medicament compositions and devices and methods of production and use thereof” (SUSTAIN HOLDINGS, LLC, priority 2017, dated 2026).

Tests used:
[1] = triple helix of the peptide chains; Sakakibara et al. 1973; cited from earlier work
[2] = system: corneal epithelium in wounded mouse eyes; test: In vivo healing of mouse corneal epithelium (corneal wound model, fluorescein staining); parameters: species or system mouse (C57BL/6); details: 25 nM (about 3 mg/kg) in aqueous PBS, applied after 1.5 mm epithelial wound; within 16 hours post-treatment; compared to PBS and EGF controls
Protocol: The FIG. 1s a series of photomicrographs depicting the healing of a wound in the cornea of mouse eye, at time 0 and 16 hours post-wounding, upon treatment with certain compositions of the present invention. Wounds were introduced into the corneas of mice, and the mice treated immediately after wounding with vehicle (PBS), with 100 ng/ml of epidermal growth factor (EGF), or with 25 nM (about 3 mg/kg) of a (Pro-Pro-Gly)7 CMP of the invention (SEQ ID NO:1) (“Cmpd 3”), or of a (Hyp-Pro-Gly)7-SubP CMP-TC of the invention (SEQ ID NO:390) (“Cmpd 10”).
To examine the possible therapeutic effects of CMPs and CMP-TC conjugates of the invention, studies were designed to test certain CMPs and CMP-TC conjugates in an in vivo setting—the healing of the corneal epithelium in wounded mouse eyes. […] Wound size at various time points over 48 hours was examined by fluorescein staining (see Carlson et al., id.), and documented via fluorescent photomicrography, and quantified using Image J software (see Rush, J. S. et al., Investig. Ophthalmol. Visual Sci. 57 (14): 5864-5871 (2016); Rush, J. S. et al., Investig. Ophthalmol. Visual Sci. 55 (8): 4691-4699 (2014)). […]

Question: With (ProProGly)10 as the substance, how does the “melting temperature of a triple helix” value [1] read?
Answer: 24 °C

Question: For (Pro-Pro-Gly)7 [Cmpd 3], which “wound healing in mouse cornea and corneal stroma (reduction in diameter and intensity of fluorescein fluorescence)” value [2] is on record?
Answer: significant acceleration of wound healing

Question: For (ProHypGly)10, which “melting temperature of a triple helix” value [1] is on record?
Answer: 58 °C

Question: For (Hyp-Pro-Gly)7-SubP [Cmpd 10], which “wound healing in mouse cornea and corneal stroma (reduction in diameter and intensity of fluorescein fluorescence)” value [2] is on record?
Answer: significant acceleration of wound healing
